Assay results from patent US10206907B2, “Compounds useful for the treatment of degenerative and inflammatory diseases” (GALAPAGOS NV, priority 2008, dated 2019).

Experiments:
[1] = target: Recombinant human JAK2 catalytic domain (Homo sapiens (Human), UniProt O60674); assay: JAK2 inhibition assay; format: biochemical; conditions: semi-quantitative score
Procedure, shortened: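 Activity was taken as vehicle cpm minus cpm with 10 μM staurosporine, and inhibition was expressed on that scale. Incubation was 90 min at 30 °C, followed by acid quench, phosphoric acid washes and Microscint counting. Compounds were tested as dose series to obtain IC50.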

[2] = Microsomal stability, rat liver microsomes; format: in vitro ADME; conditions: percentage of compound remaining after 60 minutes, 3 μM compound
Procedure, shortened: (§1)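 Percent parent remaining after 60 min was determined by LCMS against a time-zero sample quenched before microsome addition. Incubations ran at 37°C with liver microsomes and a G6PDH-based NADPH-regenerating cofactor mix. Quench was MeOH or ACN (1:1).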

[3] = Caco2 permeability (bi-directional); format: in vitro ADME, human; conditions: human, pH 7.4; for Papp A→B at 1 h, 10 µM: Caco-2, apical to basolateral, read-out: Papp (A2B); for efflux ratio at 1 h, 10 µM: Caco-2, ratio of PappB>A/PappA>B
Experimental: Bi-directional Caco-2 assays were performed as described below.
2×10^5 cells/well were seeded in plating medium consisting of DMEM+GlutaMAXI+1% NEAA+10% FBS (FetalClone II)+1% Pen/Strep. The medium was changed every 2-3 days.
50 μM Lucifer Yellow (Sigma) was added to the donor buffer in all wells to assess integrity of the cell layers by monitoring Lucifer Yellow permeation. As Lucifer Yellow (LY) cannot freely permeate lipophilic barriers, a high degree of LY transport indicates poor integrity of the cell layer.
After a 1 hour incubation at 37° C. while shaking at an orbital shaker at 150 rpm, 70 μL aliquots were taken from both apical (A) and basal (B) chambers and added to 100 μL1 50:50 acetonitrile:water solution containing analytical internal standard (0.5 μM carbamazepine) in a 96 well plate.
Concentrations of compound in the samples were measured by high performance liquid-chromatography/mass spectroscopy (LC-MS/MS).
The Efflux ratios, as an indication of active efflux from the apical cell surface, were calculated using the ratio of PappB>A/PappA>B.
The following assay acceptance criteria were used:
Lucifer yellow permeability: ≤100 nm/s

MMP13 in SW1353 cells = assay: OSM/IL-1β signaling assay (MMP13 levels in SW1353 cells); format: cell-based; conditions: Homo sapiens; SW1353 cells, OSM and IL-1β triggered, MMP13 levels 48 hours after triggering; read-out: MMP13 EC50;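 further: secreted MMP13 captured by antibody, activated with APMA and its activity read by fluorescence, inhibition scaled between vehicle-treated triggered wells (0%) and untriggered wells (100%)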
[4] = target: Recombinant human JAK1 catalytic domain (Homo sapiens (Human), UniProt P23458); assay: JAK1 inhibition assay; format: biochemical; conditions: semi-quantitative score
Recombinant human JAK1 catalytic domain, sequence (P23458 850-1154): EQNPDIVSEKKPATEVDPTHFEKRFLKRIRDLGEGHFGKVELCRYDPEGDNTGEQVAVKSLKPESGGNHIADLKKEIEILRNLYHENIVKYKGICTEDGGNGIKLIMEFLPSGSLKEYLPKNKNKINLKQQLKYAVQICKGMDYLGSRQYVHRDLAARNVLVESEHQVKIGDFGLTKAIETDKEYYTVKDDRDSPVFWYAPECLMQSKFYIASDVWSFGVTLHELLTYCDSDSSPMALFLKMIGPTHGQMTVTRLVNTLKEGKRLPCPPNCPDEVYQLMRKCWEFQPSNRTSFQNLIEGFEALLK
Procedure, shortened: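 IC50 values come from dose-response series, with each point expressed as percent inhibition of cpm. Vehicle sets full activity and 10 μM staurosporine sets background. Incorporated radioactivity counted by scintillation after washing with 75 mM phosphoric acid.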

[5] = system: JAK-STAT signalling in HeLa cells; assay: JAK-STAT signalling assay (OSM-triggered pSTAT1(2)-luciferase reporter in HeLa cells); format: cell-based; conditions: Homo sapiens; HeLa cells, OSM-triggered pSTAT1(2)-luciferase reporter; read-out: STAT signalling EC50
Procedure, shortened: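 Read-out is oncostatin M–driven pSTAT1(2)-luciferase activity, corrected by co-transfected LacZ β-galactosidase, in transiently transfected HeLa cells cultured overnight at 37 °C, 10% CO2. Inhibition percentages against positive and negative controls were plotted across doses to derive EC50.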

[6] = Microsomal stability, human liver microsomes; format: in vitro ADME; conditions: percentage of compound remaining after 60 minutes, 3 μM compound
Procedure, shortened: as §1

Recombinant human JAK2 catalytic domain, sequence (O60674 808-1132): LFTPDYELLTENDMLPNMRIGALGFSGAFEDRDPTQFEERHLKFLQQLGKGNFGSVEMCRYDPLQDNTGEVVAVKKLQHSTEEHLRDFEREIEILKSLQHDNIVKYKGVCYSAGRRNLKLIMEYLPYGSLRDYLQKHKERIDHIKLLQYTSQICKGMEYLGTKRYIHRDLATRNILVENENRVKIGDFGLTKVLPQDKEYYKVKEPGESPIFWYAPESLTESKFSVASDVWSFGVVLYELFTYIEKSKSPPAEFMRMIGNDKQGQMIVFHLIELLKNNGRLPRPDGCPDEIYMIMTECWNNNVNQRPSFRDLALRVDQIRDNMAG

| Structure (SMILES) | IC50 [1] | Microsomal Stability Rat (%) [2] | Papp A→B at 1 h, 10 µM [3] | efflux ratio at 1 h, 10 µM [3] | EC50 (MMP13 in SW1353 cells) | IC50 [4] | EC50 [5] | Microsomal Stability Human (%) [6] |
| --- | --- | --- | --- | --- | --- | --- | --- | --- |
| O=C(Nc1nc2cccc(-c3ccc4c(ccn4C(=O)CCc4ccccc4)c3)n2n1)C1CC1 [Compound 179, Cyclopropanecarboxylic Acid {5-[1-(3-phenyl-propionyl)-1H-indol-5-yl]-[1,2,4]triazolo[1,5-a]pyridin-2-yl}-amide] | – | * (* 0-25) | 0.5 ×10⁻⁶ cm/s | 1 | – | < 100 nM | > 1000 nM | * (* 0-25) |
| O=C(Nc1nc2cccc(-c3ccc(C(=O)N4CCCC(C(F)(F)F)C4)cc3)n2n1)C1CC1 (stereo not shown) [Compound 164, N-(5-(4-(3-(trifluoromethyl)piperidine-1-carbonyl)phenyl)-[1,2,4]triazol[1,5-a]pyridin-2-yl)cyclopropanecarboxamide] | – | ** (** 26-50) | 6.9 ×10⁻⁶ cm/s | 2.5 | > 1000 nM | < 100 nM | > 1000 nM | ** (** 26-50) |
| O=C(Nc1nc2cccc(-c3ccc(C(=O)N4CCC(O)CC4)cc3)n2n1)C1CC1 [Compound 209, Cyclopropanecarboxylic acid {5-[4-(4-hydroxy-piperidine-1-carbonyl)-phenyl]-[1,2,4]triazolo[1,5-a]pyridin-2-yl}-amide] | 101 to 500 nM | **** (**** 76-100) | 0.5 ×10⁻⁶ cm/s | 36 | > 1000 nM | < 100 nM | > 1000 nM | **** (**** 76-100) |
| O=C(NCCc1cnn(-c2ccccc2)c1)c1ccc(-c2cccc3nc(NC(=O)C4CC4)nn23)cc1 [Compound 106, 4-(2-(cyclopropanecarboxamido)-[1,2,4]triazolo[1,5-a]pyridin-5-yl)-N-(2-(1-phenyl-1H-pyrazol-4-yl)ethyl)benzamide] | – | * (* 0-25) | 4.23 ×10⁻⁶ cm/s | 7.38 | 1 to 500 nM | < 100 nM | 101 to 500 nM | * (* 0-25) |
| N#CC1CCN(C(=O)c2ccc(-c3cccc4nc(NC(=O)C5CC5)nn34)cc2)CC1 [Compound 210, Cyclopropanecarboxylic acid {5-[4-(4-cyano-piperidine-1-carbonyl)-phenyl]-[1,2,4]triazolo[1,5-a]pyridin-2-yl)-amide] | 101 to 500 nM | **** (**** 76-100) | 0.45 ×10⁻⁶ cm/s | 76.2 | 1 to 500 nM | < 100 nM | > 1000 nM | **** (**** 76-100) |
| O=C(Nc1nc2cccc(-c3ccc(CN4CCCC(F)C4)cc3)n2n1)C1CC1 (stereo not shown) [Compound 280, Cyclopropanecarboxylic acid {5-[4-(3-fluoro-piperidin-1-ylmethyl)-phenyl]-[1,2,4]triazolo[1,5-a]pyridin-2-yl}-amide] | – | ** (** 26-50) | 11.4 ×10⁻⁶ cm/s | 1.14 | > 1000 nM | < 100 nM | 501 to 1000 nM | *** (*** 51-75) |
| O=C(Nc1nc2cccc(-c3ccc(CNC4CCS(=O)(=O)C4)cc3)n2n1)C1CC1 (stereo not shown) [Compound 304, Cyclopropanecarboxylic acid (5-{4-[(1,1-dioxo-tetrahydro-thiophen-3-ylamino)-methyl]-phenyl}-[1,2,4]triazolo[1,5-a]pyridin-2-yl)-amide] | < 100 nM | **** (**** 76-100) | 0.3 ×10⁻⁶ cm/s | 69.7 | > 1000 nM | < 100 nM | > 1000 nM | – |
| O=C(NCc1cccnc1)c1ccc(-c2cccc3nc(NC(=O)C4CC4)nn23)cc1 [Compound 42, 4-(2-(cyclopropanecarboxamido)-[1,2,4]triazolo[1,5-a]pyridin-5-yl)-N-(pyridin-3-ylmethyl)benzamide] | – | **** (**** 76-100) | 0.45 ×10⁻⁶ cm/s | 68.8 | – | 101 to 500 nM | – | *** (*** 51-75) |
| CC1(C)CCCN(C(=O)c2ccc(-c3cccc4nc(NC(=O)C5CC5)nn34)cc2)C1 [Compound 175, N-(5-(4-(3,3-dimethylpiperidine-1-carbonyl)phenyl)-[1,2,4]triazolo[1,5-a]pyridin-2-yl)cyclopropanecarboxamide] | – | * (* 0-25) | 6.95 ×10⁻⁶ cm/s | 2 | 1 to 500 nM | < 100 nM | 501 to 1000 nM | * (* 0-25) |
| O=C(Nc1nc2cccc(-c3ccc(C(=O)N4CCC(F)(F)CC4)cc3)n2n1)C1CC1 [Compound 168] | – | *** (*** 51-75) | 11 ×10⁻⁶ cm/s | – | > 1000 nM | – | > 1000 nM | **** (**** 76-100) |

Now from value to compound:

| IC50 [1] | Microsomal Stability Rat (%) [2] | Papp A→B at 1 h, 10 µM [3] | efflux ratio at 1 h, 10 µM [3] | EC50 (MMP13 in SW1353 cells) | IC50 [4] | EC50 [5] | Microsomal Stability Human (%) [6] | Structure (SMILES) |
| --- | --- | --- | --- | --- | --- | --- | --- | --- |
| < 100 nM | * (* 0-25) | 13.9 ×10⁻⁶ cm/s | 1.31 | > 1000 nM | < 100 nM | 101 to 500 nM | – | N#CCc1ccc(OCc2ccc(-c3cccc4nc(NC(=O)C5CC5)nn34)cc2)cc1 [Compound 301, Cyclopropanecarboxylic acid {5-[4-(4-cyanomethyl-phenoxymethyl)-phenyl]-[1,2,4]triazolo[1,5-a]pyridin-2-yl}-amide] |
| 101 to 500 nM | *** (*** 51-75) | 3.2 ×10⁻⁶ cm/s | – | 501 to 1000 nM | < 100 nM | 501 to 1000 nM | *** (*** 51-75) | N#Cc1ccc(COC2CN(C(=O)c3ccc(-c4cccc5nc(NC(=O)C6CC6)nn45)cc3)C2)cc1 [Compound 325, Cyclopropanecarboxylic acid (5-{4-[3-(4-cyano-benzyloxy)-azetidine-1-carbonyl]-phenyl}-[1,2,4]triazolo[1,5-a]pyridin-2-yl)-amide] |
| < 100 nM | – | 24 ×10⁻⁶ cm/s | 1.1 | – | – | – | – | O=C(Nc1nc2cccc(-c3ccc(CNc4ncc(F)cc4F)cc3)n2n1)C1CC1 [Compound 257, Cyclopropanecarboxylic acid (5-{4-[(3,5-difluoro-pyridin-2-ylamino)-methyl]-phenyl}-[1,2,4]triazolo[1,5-a]pyridin-2-yl)-amide] |
| < 100 nM | * (* 0-25) | – | – | 501 to 1000 nM | < 100 nM | 501 to 1000 nM | * (* 0-25) | O=C(Nc1nc2cccc(-c3ccc(CCc4ccccn4)cc3)n2n1)C1CC1 [Compound 211, Cyclopropanecarboxylic Acid {5-[4-(2-pyridin-2-yl-ethyl)-phenyl]-[1,2,4]triazolo[1,5-a]pyridin-2-yl}-amide] |
| < 100 nM | * (* 0-25) | – | – | 1 to 500 nM | < 100 nM | 501 to 1000 nM | * (* 0-25) | COc1ccc(NCc2ccc(-c3cccc4nc(NC(=O)C5CC5)nn34)cc2)cn1 [Compound 236, Cyclopropanecarboxylic acid (5-{4-[(6-methoxy-pyridin-3-ylamino)-methyl]-phenyl}-[1,2,4]triazolo[1,5-a]pyridin-2-yl)-amide] |
| < 100 nM | **** (**** 76-100) | 1.05 ×10⁻⁶ cm/s | 70.2 | > 1000 nM | < 100 nM | > 1000 nM | – | CC(=O)N(Cc1ccc(C#N)nc1)c1ccc(-c2cccc3nc(NC(=O)C4CC4)nn23)cc1 [Compound 297, Cyclopropanecarboxylic acid (5-{4-[acetyl-(6-cyano-pyridin-3-ylmethyl)-amino]-phenyl}-[1,2,4]triazolo[1,5-a]pyridin-2-yl)-amide] |
